According to patent US20240279604A1, “3D spheroid having uniform size and composition comprising neuron and astrocyte derived from Alzheimer's disease patients, method for producing thereof, and method and kit for screening drug using thereof” (Industry-University Cooperation Foundation Hanyang …, priority 2023, published 2024):
“Also recorded” adds a separate entry of the source.

Key:
[1] = test system: Alzheimer's disease-derived spheroids (PS1-mutated AD-iPSC-NPCs); test: ThT staining of Aβ aggregates in Alzheimer's disease-derived spheroids; type: cell-based, human; details: 10 μM, 3 days; confocal microscopy; FIG. 6C
Procedure: (§1) For drug efficacy testing of 3D cultured cells, PS1-mutated AD-iPSC-NPCs were differentiated into spheroids in a U-bottom plate (Thermo Fisher Scientific). Spheroids were cultured with nordihydroguaiaretic acid (NDGA)(10 μM, Tokyo Chemical Industry, Tokyo, Japan) or curcumin (CU)(10 μM, Tokyo Chemical Industry) in a humidified incubator under 37° C. and 5% CO^2 conditions for 3 days and then fixed for immunocytochemistry and western blotting.
(§2) After washing with a probe-free medium, samples were captured and analyzed using a fluorescence microscope (FV3000, Olympus).

Aβ (1-42) = target: T1, Aβ (1-42) (Homo sapiens, UniProt P05067); test: in vitro ThT fluorescence assay for Aβ (1-42) aggregation; type: biochemical; details: 10 μM compound, 2 μM Aβ (1-42), 20 μM ThT, pH 8.0, 37° C.; FIG. 6A
T1 construct: an Aβ (1-42) peptide (AGP-8338, Anygen, Gwangju, Republic of Korea); purchased Anygen AGP-8338
T1 sequence (P05067 672-713 limits assumed): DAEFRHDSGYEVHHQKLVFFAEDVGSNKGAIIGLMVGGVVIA
Procedure: The degree of inhibition of Aβ (1-42) aggregation was measured using an in vitro ThT fluorescence assay. An Aβ (1-42) stock (0.2 mM) was prepared in 50% DMSO, and NDGA and CU stocks were prepared in 100% DMSO. Reactions for Aβ (1-42) aggregation (2 μM) and its inhibition by NDGA or CU (10 μM) were performed in a 20 mM sodium phosphate buffer (pH 8.0) supplemented with 0.2 mM EDTA and 0.02% sodium azide in the presence of 20 μM ThT in microplate wells (Corning® 96-well Black Flat Bottom Polystyrene Not Treated Microplate, Corning). ThT fluorescence intensity was measured every 30 minutes under 0.5 min shaking under 335 rpm/29.5 min incubation conditions at 37° C. using an Infinite […] (TECAN Mannedorf, Switzerland) microplate reader with 450-nm excitation and 480-nm emission filters.

[2] = test system: Alzheimer's disease-derived spheroids (PS1-mutated AD-iPSC-NPCs); test: Aβ (1-42) ELISA in Alzheimer's disease-derived spheroids cultured with drug; type: cell-based, human; details: 10 μM, 3 days; FIG. 6B
Procedure: as §1

[3] = test system: Alzheimer's disease-derived spheroids (PS1-mutated AD-iPSC-NPCs); test: CellEvent Caspase-3/7 Green activated caspase staining in Alzheimer's disease-derived spheroids; type: cell-based, human; details: for CellEvent fluorescence signal (activated caspase cell death staining): 10 μM, 3 days, confocal microscopy, FIG. 6D; for green fluorescence of activated caspase, confocal z-stack from surface to inside of spheroids (cell penetration/uptake): confocal z-stack images, FIG. 7
Procedure: as §1
(§3) After being washed with a probe-free medium, samples were captured and analyzed using a fluorescence microscope (FV3000, Olympus). Cell penetration/uptake by CellEvent staining was analyzed with confocal z-stack data for the green fluorescence of activated caspase released from the inside of spheroids. The confocal z-stack data was obtained from 100 slides of each 1 μm of one spheroid.

[4] = test system: 3D spheroids manufactured from iPSC-NPCs derived from healthy individuals; test: ThT staining of control 3D spheroids treated with oligomerized Aβ; type: cell-based, human; details: Aβ aggregates 10 μM, 24 hours, compared to spheroids not treated with Aβ; FIG. 4A
Text: (§4) J Neurosci Methods. 2010; 190(2): 171-179. […] When used, Aβ was suspended in PBS and used.
as §2

[5] = test system: 3D spheroids manufactured from iPSC-NPCs derived from healthy individuals; test: CellEvent activated caspase staining of control 3D spheroids treated with oligomerized Aβ; type: cell-based, human; details: Aβ aggregates 10 μM, 24 hours, compared to untreated; FIG. 4C
Procedure: as §4, §3

Row | Molecule | ThT fluorescence signal / staining intensity (Aβ aggregates) [1] | Aβ (1-42) aggregation (ThT fluorescence) (Aβ (1-42)) | Aβ (1-42) levels by ELISA [2] | CellEvent fluorescence signal (activated caspase cell death staining) [3] | green fluorescence of activated caspase, confocal z-stack from surface to inside of spheroids (cell penetration/uptake) [3] | ThT fluorescence emission [4] | green fluorescence emission according to CellEvent staining (cell death) [5]
1 | COc1cc(/C=C/C(=O)CC(=O)/C=C/c2ccc(O)c(OC)c2)ccc1O [CU, curcumin] | reduced | suppressed | decreased; also recorded: reduced | reduced | reduction in fluorescence from the surface to the inside of spheroids |  | 
2 | CC(Cc1ccc(O)c(O)c1)C(C)Cc1ccc(O)c(O)c1 (stereo not drawn) [NDGA, nordihydroguaiaretic acid] | reduced | suppressed | decreased; also recorded: reduced | reduced | reduction in fluorescence from the surface to the inside of spheroids |  | 
3 | oligomerized Aβ: Aβ (1-42) peptide aggregated/oligomerized in DMSO, used to treat control spheroids |  |  |  |  |  | noticeably increased | substantially increased
